One experiment addresses CDK6-CYCLIND3 (Homo sapiens, UniProt Q00534). The experiment in a line: Microfluidic LabChip inhibition assay, CDK6-CYCLIND3. Format: biochemical. The following applies: ATP 300 μM. The procedure: (§1) The reaction was terminated by the addition of EDTA. The plates were analyzed using a Caliper LabChip 3000.
(§2) Additional inhibition assays were performed as described above.

Another experiment has as its target CDK4-CYCLIND1 (Homo sapiens, UniProt P11802). The experiment in a line: Microfluidic LabChip inhibition assay, CDK4-CYCLIND1. Conditions: ATP 200 μM. The format is biochemical. How it is done:
as §1, §2

The mark [1] stands for this setting: Table 2, 25° C., read-out: CDK6 IC50.
Setting [2] is: Table 2, 25° C., read-out: CDK4 IC50.
[3] abbreviates: Table 3a, read-out: CDK6 CyclinD3 IC50.
The mark [4] stands for this setting: Table 3a, second values in parentheses on the line below, not explained, read-out: CDK4 CyclinD1 IC50.
The mark [5] stands for this setting: Table 3b, second values in parentheses on the line below, not explained, read-out: CDK4 CyclinD1 IC50.

The structures appear in SMILES notation. Several values for one entry are separate records, joined by “and”; a condition that tells them apart may be missing. Identical values can stand only once. Like-named read-outs stand apart in the source and are kept apart here. Where only a bound is given, the exact number is not on record here.

Chain of CDK6-CYCLIND3 (Q00534 whole entry): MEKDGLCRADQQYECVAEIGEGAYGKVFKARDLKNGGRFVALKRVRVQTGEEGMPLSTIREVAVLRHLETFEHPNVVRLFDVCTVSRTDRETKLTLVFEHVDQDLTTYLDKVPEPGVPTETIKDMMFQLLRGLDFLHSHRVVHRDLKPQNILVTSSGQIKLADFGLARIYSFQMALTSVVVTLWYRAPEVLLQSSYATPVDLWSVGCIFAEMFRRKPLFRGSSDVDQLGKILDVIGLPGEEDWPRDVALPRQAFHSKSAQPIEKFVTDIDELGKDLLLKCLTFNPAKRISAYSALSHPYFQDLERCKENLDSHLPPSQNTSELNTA
Chain of CDK6-CYCLIND3 (P30281 whole entry partner): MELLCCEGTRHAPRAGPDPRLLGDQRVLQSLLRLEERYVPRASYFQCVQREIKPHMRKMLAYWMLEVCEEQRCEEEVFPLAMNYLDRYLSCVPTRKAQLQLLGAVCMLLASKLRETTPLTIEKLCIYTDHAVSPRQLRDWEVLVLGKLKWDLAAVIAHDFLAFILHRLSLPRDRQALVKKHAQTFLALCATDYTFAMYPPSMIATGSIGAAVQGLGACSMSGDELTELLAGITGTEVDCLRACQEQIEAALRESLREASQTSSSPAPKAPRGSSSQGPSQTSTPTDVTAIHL
Chain of CDK4-CYCLIND1 (P11802 whole entry): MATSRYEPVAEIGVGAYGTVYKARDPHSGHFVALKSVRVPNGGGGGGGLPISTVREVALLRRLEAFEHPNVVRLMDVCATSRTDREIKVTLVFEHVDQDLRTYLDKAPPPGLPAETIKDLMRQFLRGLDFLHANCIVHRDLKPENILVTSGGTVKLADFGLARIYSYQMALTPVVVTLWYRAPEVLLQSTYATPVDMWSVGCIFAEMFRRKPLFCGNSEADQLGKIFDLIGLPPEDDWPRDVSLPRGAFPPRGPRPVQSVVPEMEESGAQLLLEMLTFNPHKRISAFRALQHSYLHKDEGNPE
Chain of CDK4-CYCLIND1 (P24385 whole entry partner): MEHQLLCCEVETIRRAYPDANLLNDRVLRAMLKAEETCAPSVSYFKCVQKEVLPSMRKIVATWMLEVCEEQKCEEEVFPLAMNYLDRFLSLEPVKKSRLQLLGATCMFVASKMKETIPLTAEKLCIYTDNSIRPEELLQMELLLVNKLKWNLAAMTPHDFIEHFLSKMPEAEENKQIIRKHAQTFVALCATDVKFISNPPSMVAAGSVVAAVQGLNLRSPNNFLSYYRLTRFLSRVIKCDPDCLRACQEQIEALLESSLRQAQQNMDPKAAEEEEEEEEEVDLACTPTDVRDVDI

Consider `CN(C)[C@H]1CCN(c2ccc(Nc3ncc4cc(C#N)c(=O)n(C5CCCC5)c4n3)cc2F)C1` [Compound B45, (S)-8-cyclopentyl-2-((4-(3-(dimethylamino)pyrrolidin-1-yl)-3-fluorophenyl)amino)-7-oxo-7,8-dihydropyrido[2,3-d]pyrimidine-6-carbonitrile], for which the IC50 came out at 0.00986 µM at CDK6-CYCLIND3 (setting [1]) and 0.00368 µM at CDK4-CYCLIND1 (setting [2]).

As to `CN(C)[C@H]1CCN(C(=O)c2ccc(Nc3ncc4cc(C#N)c(=O)n(C5CCCC5)c4n3)cc2)C1` [Compound B35, (S)-8-cyclopentyl-2-((4-(3-(dimethylamino)pyrrolidine-1-carbonyl)phenyl)amino)-7-oxo-7,8-dihydropyrido[2,3-d]pyrimidine-6-carbonitrile], the results for the IC50 on CDK6-CYCLIND3 (setting [1]) and on CDK4-CYCLIND1 (setting [2]) were 0.0223 µM and 0.00384 µM, respectively.

For `CN1CCN(c2ccc(Nc3ncc4cc(C#N)c(=O)n(C5CCCC5)c4n3)cn2)CC1` [Compound B23, 8-cyclopentyl-2-((6-(4-methylpiperazin-1-yl)pyridin-3-yl)amino)-7-oxo-7,8-dihydropyrido[2,3-d]pyrimidine-6-carbonitrile], the IC50 on CDK6-CYCLIND3 (setting [1]) was 0.0332 µM; at CDK4-CYCLIND1 (setting [2]), 0.0115 µM.

For the molecule `CN1CCN(c2ccc(Nc3ncc4cc(C#N)c(=O)n(C56CC(C5)C6)c4n3)cc2)CC1` [Compound B1, 8-(bicyclo[1.1.1]pentan-1-yl)-2-((4-(4-methylpiperazin-1-yl)phenyl)amino)-7-oxo-7,8-dihydropyrido[2,3-d]pyrimidine-6-carbonitrile], the IC50 at CDK6-CYCLIND3 (setting [1]) turned out to be 0.0415 µM; on CDK4-CYCLIND1 (setting [2]), 0.0311 µM.

Consider `CN1CCN(c2ccc(Nc3ncc4cc(C#N)c(=O)n(C5CCCC5)c4n3)cc2)CC1` [ON123300], for which the figures for the IC50 on CDK6-CYCLIND3 (setting [1]) and on CDK4-CYCLIND1 (setting [2]) were 0.00476 µM and 0.00168 µM, respectively.

On to `CCN1CCN(Cc2ccc(Nc3ncc4cc(C#N)c(=O)n(C5CCCC5)c4n3)nc2)CC1` [Compound B37, 8-cyclopentyl-2-((5-((4-ethylpiperazin-1-yl)methyl)pyridin-2-yl)amino)-7-oxo-7,8-dihydropyrido[2,3-d]pyrimidine-6-carbonitrile], for which the IC50 at CDK6-CYCLIND3 (setting [1]) amounted to 0.0936 µM; on CDK4-CYCLIND1 (setting [2]), 0.0463 µM.

In the case of `CN(C)[C@H]1CCN(c2ccc(Nc3ncc4cc(C#N)c(=O)n(C5CCCC5)c4n3)cc2)C1` [Compound B42, (S)-8-cyclopentyl-2-((4-(3-(dimethylamino)pyrrolidin-1-yl)phenyl)amino)-7-oxo-7,8-dihydropyrido[2,3-d]pyrimidine-6-carbonitrile], the IC50 was found to be 0.00601 µM at CDK6-CYCLIND3 (setting [1]) and 0.00231 µM on CDK4-CYCLIND1 (setting [2]).

As to `N#Cc1cc2cnc(N3CCC(N4CCOCC4)CC3)nc2n(C2CCCC2)c1=O` [Compound B20, 8-cyclopentyl-2-(4-morpholinopiperidin-1-yl)-7-oxo-7,8-dihydropyrido[2,3-d]pyrimidine-6-carbonitrile], the half-maximal inhibitory concentration (IC50) was at least 30 µM at CDK6-CYCLIND3 (setting [1]) and 15.7 µM at CDK4-CYCLIND1 (setting [2]).

As for `CC(=O)c1c(C)c2cnc(Nc3ccc(N(C)CCN(C)C)cc3)nc2n(C2CCCC2)c1=O` [Compound B64, 6-acetyl-8-cyclopentyl-2-((4-((2-(dimethylamino)ethyl)(methyl)amino)phenyl)amino)-5-methylpyrido[2,3-d]pyrimidin-7(8H)-one], the 50% inhibitory concentration (IC50) on CDK6-CYCLIND3 (setting [3]) is 0.0761 µM; at CDK4-CYCLIND1 (setting [4]), 0.00822 µM; at CDK4-CYCLIND1 (setting [5]) it was 0.00822 µM.

For `N#Cc1cc2cnc(Nc3cc(C(F)(F)F)c(N4CCNCC4)cn3)nc2n(C2CCCC2)c1=O` [Compound B10, 8-cyclopentyl-7-oxo-2-((5-(piperazin-1-yl)-4-(trifluoromethyl)pyridin-2-yl)amino)-7,8-dihydropyrido[2,3-d]pyrimidine-6-carbonitrile], the half-maximal inhibitory concentration (IC50) was determined as 9.24 µM at CDK6-CYCLIND3 (setting [1]) and 2.82 µM at CDK4-CYCLIND1 (setting [2]).

`N#Cc1cc2cnc(Nc3ccc(OCCN4CCCCC4)nc3)nc2n(C2CCCC2)c1=O` [Compound B8, 8-cyclopentyl-7-oxo-2-((6-(2-(piperidin-1-yl)ethoxy)pyridin-3-yl)amino)-7,8-dihydropyrido[2,3-d]pyrimidine-6-carbonitrile]: the IC50 stood at 0.0553 µM on CDK6-CYCLIND3 (setting [1]) and 0.0291 µM at CDK4-CYCLIND1 (setting [2]).

With `CNC(=O)c1cc2cnc(Nc3ccc(N4CCN(C)CC4)cc3)nc2n(C2CCCC2)c1=O` [Compound B143, 8-cyclopentyl-N-methyl-2-((4-(4-methylpiperazin-1-yl)phenyl)amino)-7-oxo-7,8-dihydropyrido[2,3-d]pyrimidine-6-carboxamide], the figures for the half-maximal inhibitory concentration (IC50) on CDK6-CYCLIND3 (setting [3]) and on CDK4-CYCLIND1 (setting [4]) were 0.134 µM and 0.017 µM, respectively.

For `CC(=O)NC(=O)c1cc2cnc(Nc3ccc(N4CCN(C)CC4)cn3)nc2n(C2CCCC2)c1=O` [Compound B146, N-acetyl-8-cyclopentyl-2-((5-(4-methylpiperazin-1-yl)pyridin-2-yl)amino)-7-oxo-7,8-dihydropyrido[2,3-d]pyrimidine-6-carboxamide], the IC50 on CDK6-CYCLIND3 (setting [3]) is 1.49 µM; at CDK4-CYCLIND1 (setting [4]), 0.459 µM; on CDK4-CYCLIND1 (setting [5]), 0.459 µM.

Regarding `N#Cc1cc2cnc(Nc3ccc(C4=CCNCC4)cn3)nc2n(C2CCCC2)c1=O` [Compound B9, 8-cyclopentyl-7-oxo-2-((1′,2′,3′,6′-tetrahydro-[3,4′-bipyridin]-6-yl)amino)-7,8-dihydropyrido[2,3-d]pyrimidine-6-carbonitrile], the figures for the IC50 at CDK6-CYCLIND3 (setting [1]) and at CDK4-CYCLIND1 (setting [2]) were 0.0372 µM and 0.0338 µM, respectively.

Turning to `CN(C)[C@H]1CCN(c2ccc(Nc3ncc4cc(C#N)c(=O)n(C5CCCC5)c4n3)nc2)C1` [Compound B43, (S)-8-cyclopentyl-2-((5-(3-(dimethylamino)pyrrolidin-1-yl)pyridin-2-yl)amino)-7-oxo-7,8-dihydropyrido[2,3-d]pyrimidine-6-carbonitrile], the figures for the concentration for half-maximal inhibition (IC50) on CDK6-CYCLIND3 (setting [1]) and on CDK4-CYCLIND1 (setting [2]) were 0.0615 µM and 0.0469 µM, respectively.

Take `N#Cc1cc2cnc(Nc3ccc(N4CC5(CNC5)C4)cc3)nc2n(C2CCCC2)c1=O` [Compound B31, 2-((4-(2,6-diazaspiro[3.3]heptan-2-yl)phenyl)amino)-8-cyclopentyl-7-oxo-7,8-dihydropyrido[2,3-d]pyrimidine-6-carbonitrile]: the concentration for half-maximal inhibition (IC50) at CDK6-CYCLIND3 (setting [1]) turned out to be 0.00829 µM; on CDK4-CYCLIND1 (setting [2]), 0.00241 µM.

As for `CC(=O)c1c(C)c2cnc(Nc3ccc(OCCN4CCCCC4)cn3)nc2n(C2CCCC2)c1=O` [Compound B67, 6-acetyl-8-cyclopentyl-5-methyl-2-((5-(2-(piperidin-1-yl)ethoxy)pyridin-2-yl)amino)pyrido[2,3-d]pyrimidin-7(8H)-one], the IC50 on CDK6-CYCLIND3 (setting [3]) amounted to 0.298 µM; at CDK4-CYCLIND1 (setting [4]) it was 0.0488 µM; on CDK4-CYCLIND1 (setting [5]), 0.0488 µM.

Take `CN1CCN(c2ccc(Nc3ncc4cc(C(=O)N(C)C)c(=O)n(C5CCCC5)c4n3)nc2)CC1` [Compound B141, 8-cyclopentyl-N,N-dimethyl-2-((5-(4-methylpiperazin-1-yl)pyridin-2-yl)amino)-7-oxo-7,8-dihydropyrido[2,3-d]pyrimidine-6-carboxamide]: the IC50 is 1.99 µM on CDK6-CYCLIND3 (setting [3]), 0.715 µM on CDK4-CYCLIND1 (setting [4]) and 0.715 µM on CDK4-CYCLIND1 (setting [5]).

With `CN1CCN(c2ccc(Nc3ncc4cc(C#N)c(=O)n(C56CC(C5)C6)c4n3)nc2)CC1` [Compound B3, 8-(bicyclo[1.1.1]pentan-1-yl)-2-((5-(4-methylpiperazin-1-yl)pyridin-2-yl)amino)-7-oxo-7,8-dihydropyrido[2,3-d]pyrimidine-6-carbonitrile], the figures for the concentration for half-maximal inhibition (IC50) at CDK6-CYCLIND3 (setting [1]) and at CDK4-CYCLIND1 (setting [2]) were 0.432 µM and 0.504 µM, respectively.

Consider `CC(C)N1CCN(c2ccc(Nc3ncc4cc(C#N)c(=O)n(C5CCCC5)c4n3)nc2)CC1` [Compound B25, 8-cyclopentyl-2-((5-(4-isopropylpiperazin-1-yl)pyridin-2-yl)amino)-7-oxo-7,8-dihydropyrido[2,3-d]pyrimidine-6-carbonitrile], for which the half-maximal inhibitory concentration (IC50) on CDK6-CYCLIND3 (setting [1]) is 0.019 µM; at CDK4-CYCLIND1 (setting [2]), 0.00751 µM.

In the case of `N#Cc1cc2cnc(Nc3ccc(N4CCN5CCC4CC5)cn3)nc2n(C2CCCC2)c1=O` [Compound B13, 2-((5-(1,4-diazabicyclo[3.2.2]nonan-4-yl)pyridin-2-yl)amino)-8-cyclopentyl-7-oxo-7,8-dihydropyrido[2,3-d]pyrimidine-6-carbonitrile], the IC50 on CDK6-CYCLIND3 (setting [1]) came out at 0.798 µM; at CDK4-CYCLIND1 (setting [2]) it was 0.571 µM.

As for `CN1CCN(c2ccc(Nc3ncc4cc(C#N)c(=O)n(C56CC(C5)C6)c4n3)cc2F)CC1` [Compound B148, 8-(bicyclo[1.1.1]pentan-1-yl)-2-((3-fluoro-4-(4-methylpiperazin-1-yl)phenyl)amino)-7-oxo-7,8-dihydropyrido[2,3-d]pyrimidine-6-carbonitrile], the IC50 on CDK6-CYCLIND3 (setting [3]) amounted to 0.102 µM; at CDK4-CYCLIND1 (setting [4]), 0.0596 µM; on CDK4-CYCLIND1 (setting [5]) it was 0.0596 µM.

For `N#Cc1cc2cnc(Nc3ccc(N4CCNCC4)cn3)nc2n(C23CC(C2)C3)c1=O` [Compound B2, 8-(bicyclo[1.1.1]pentan-1-yl)-7-oxo-2-((5-(piperazin-1-yl)pyridin-2-yl)amino)-7,8-dihydropyrido[2,3-d]pyrimidine-6-carbonitrile], the 50% inhibitory concentration (IC50) on CDK6-CYCLIND3 (setting [1]) came to 0.253 µM; at CDK4-CYCLIND1 (setting [2]) it was 0.307 µM.

As to `CC(=O)c1c(C)c2cnc(Nc3ccc(OCCN(C)C)nc3)nc2n(C2CCCC2)c1=O` [Compound B63, 6-acetyl-8-cyclopentyl-2-((6-(2-(dimethylamino)ethoxy)pyridin-3-yl)amino)-5-methylpyrido[2,3-d]pyrimidin-7(8H)-one], the IC50 was 0.037 µM on CDK6-CYCLIND3 (setting [3]); 0.00864 µM and 0.00636 µM at CDK4-CYCLIND1 (setting [4]); 0.00864 µM and 0.00636 µM at CDK4-CYCLIND1 (setting [5]).

With `CC(=O)c1c(C)c2cnc(Nc3ccc(OCCN(C)C)cn3)nc2n(C2CCCC2)c1=O` [Compound B65, 6-acetyl-8-cyclopentyl-2-((5-(2-(dimethylamino)ethoxy)pyridin-2-yl)amino)-5-methylpyrido[2,3-d]pyrimidin-7(8H)-one], the IC50 on CDK6-CYCLIND3 (setting [3]) is 0.0467 µM; at CDK4-CYCLIND1 (setting [4]) it was 0.00147 µM; at CDK4-CYCLIND1 (setting [5]) it was 0.00147 µM.

The values above are taken from patent US20220220103A1, “CYCLIN-DEPENDENT KINASE INHIBITORS” (SPV THERAPEUTICS INC., priority 2018, published 2022).
